# Biological target: T1, CCR2 (Homo sapiens, UniProt P41597)
# T1 construct: expressed in transfected cells
# Experiment: CCR2 calcium activity assay on FLIPR Tetra in HEK-Gqi5 cells stably expressing CCR2
# Format: cell-based
# T1 sequence (P41597 whole entry, species assumed): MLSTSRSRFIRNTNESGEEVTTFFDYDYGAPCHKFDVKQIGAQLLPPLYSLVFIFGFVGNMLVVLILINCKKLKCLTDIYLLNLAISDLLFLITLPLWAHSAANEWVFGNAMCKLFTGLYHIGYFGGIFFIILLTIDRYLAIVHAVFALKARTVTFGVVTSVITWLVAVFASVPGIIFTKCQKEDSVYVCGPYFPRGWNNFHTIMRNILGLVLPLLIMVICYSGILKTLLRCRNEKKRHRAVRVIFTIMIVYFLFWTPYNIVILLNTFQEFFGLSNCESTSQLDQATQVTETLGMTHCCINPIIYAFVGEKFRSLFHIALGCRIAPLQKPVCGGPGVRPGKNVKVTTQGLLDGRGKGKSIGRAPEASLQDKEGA
Structure (SMILES),CCR2 % ANTAG [%],IC50 [nM]
"Cn1sc(=O)c2cc(S(=O)(=O)Nc3c(Cl)cccc3NS(=O)(=O)c3cccs3)ccc21 [N-{2-chloro-6-[(2-thienylsulfonyl)amino]phenyl}-1-methyl-3-oxo-1,3-dihydro-2,1-benzisothiazole-5-sulfonamide]",106,468
"COc1cccc(NS(=O)(=O)c2ccc3c(c2)c(=O)sn3C)c1 [N-(3-methoxyphenyl)-1-methyl-3-oxo-1,3-dihydro-2,1-benzisothiazole-5-sulfonamide]",84,2450
CN(C)c1ccc(NS(=O)(=O)c2cccs2)c(NS(=O)(=O)c2ccc3c(c2)c(=O)sn3C)c1,35,551
"Cn1sc(=O)c2cc(S(=O)(=O)Nc3cccc(OC(F)(F)F)c3)ccc21 [1-methyl-3-oxo-N-[3-(trifluoromethoxy)phenyl]-1,3-dihydro-2,1-benzisothiazole-5-sulfonamide]",92,920
"CN(C)c1cccc(S(=O)(=O)Nc2ccc(Cl)cc2NS(=O)(=O)c2ccc3c(c2)c(=O)sn3C)c1 [N-[5-chloro-2-({[3-(dimethylamino)phenyl]sulfonyl}amino)phenyl]-1-methyl-3-oxo-1,3-dihydro-2,1-benzisothiazole-5-sulfonamide]",69,678
"Cn1sc(=O)c2cc(S(=O)(=O)Nc3ccccc3CNS(=O)(=O)c3cccs3)ccc21 [1-methyl-3-oxo-N-(2-{[(2-thienylsulfonyl)amino]methyl}phenyl)-1,3-dihydro-2,1-benzisothiazole-5-sulfonamide]",61,–
"Cn1sc(=O)c2cc(S(=O)(=O)Nc3cc(Cl)cnc3C(=O)N3CCC(=O)CC3)ccc21 [N-{5-chloro-2-[(4-oxopiperidin-1-yl)carbonyl]pyridin-3-yl}-1-methyl-3-oxo-1,3-dihydro-2,1-benzisothiazole-5-sulfonamide]",58,–
"Cn1sc(=O)c2cc(S(=O)(=O)Nc3cccc(Cl)c3)ccc21 [N-(3-chlorophenyl)-1-methyl-3-oxo-1,3-dihydro-2,1-benzisothiazole-5-sulfonamide]",84,–
"Cc1cc(NS(=O)(=O)c2cccs2)c(NS(=O)(=O)c2ccc3c(c2)c(=O)sn3C)cc1Cl [N-{5-chloro-4-methyl-2-[(2-thienylsulfonyl)amino]phenyl}-1-methyl-3-oxo-1,3-dihydro-2,1-benzisothiazole-5-sulfonamide]",91,531
"CCc1ccc(NS(=O)(=O)c2cccs2)c(NS(=O)(=O)c2ccc3c(c2)c(=O)sn3C)c1 [N-{5-ethyl-2-[(2-thienylsulfonyl)amino]phenyl}-1-methyl-3-oxo-1,3-dihydro-2,1-benzisothiazole-5-sulfonamide]",94,1940
"COc1cccc(S(=O)(=O)Nc2cc(Cl)c(Cl)cc2NS(=O)(=O)c2ccc3c(c2)c(=O)sn3C)c1 [N-(4,5-dichloro-2-{[(3-methoxyphenyl)sulfonyl]amino}phenyl)-1-methyl-3-oxo-1,3-dihydro-2,1-benzisothiazole-5-sulfonamide]",92,651
"CC(C)Oc1ccc(S(=O)(=O)Nc2ccc(Cl)cc2NS(=O)(=O)c2ccc3c(c2)c(=O)sn3C)cc1 [N-(5-chloro-2-{[(4-isopropoxyphenyl)sulfonyl]amino}phenyl)-1-methyl-3-oxo-1,3-dihydro-2,1-benzisothiazole-5-sulfonamide]",72,–
"Cn1sc(=O)c2cc(S(=O)(=O)Nc3ccc(C#N)cc3NS(=O)(=O)c3cccs3)ccc21 [N-{4-cyano-2-[(2-thienylsulfonyl)amino]phenyl}-1-methyl-3-oxo-1,3-dihydro-2,1-benzisothiazole-5-sulfonamide]",31,–
"Cn1sc(=O)c2cc(S(=O)(=O)Nc3cc(Cl)c(Cl)cc3NS(=O)(=O)c3cc(Cl)c(Cl)s3)ccc21 [N-(4,5-dichloro-2-{[(4,5-dichloro-2-thienyl)sulfonyl]amino}phenyl)-1-methyl-3-oxo-1,3-dihydro-2,1-benzisothiazole-5-sulfonamide]",103,2340
